Read-outs that look alike come from different tables or passages of the source.
Experiments:
[1] = target: DCN1 (DCUND1) protein PONY domain (Homo sapiens (Human), UniProt Q96GG9); test: TR-FRET assay, DCN1 binding with FAM-labeled probe
Summary of the method: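 Binding was read as the TR-FRET ratio between a FAM-tagged inhibitor probe and Tb-labeled biotinylated E. coli-expressed DCN1 PONY domain, measured 1, 5 and 24 h after compound addition. The two setups used 5 nM protein/20 nM FAM-probe or 0.31 nM protein/900 nM total probe (100 nM labeled), in TritonX buffer with 200 mM NaCl.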

[2] = test system: Cullin-3 (CUL3) neddylation; test: AlphaLISA assay for Cullin-3 (CUL3) neddylation in TF 1 cells; format: cell-based; conditions: 3 hours treatment
Procedure: An AiphaLISA assay was performed to evaluate the ability of the compounds to suppress neddylation, which is downstream from DCN-1 and DCN-2. A stronger inhibition of DCN-1 and DCN-2 is expected to result in a suppression of neddylation as shown by a lower AlphaLISA signal. The AlphaLISA assay for detecting Cullin-3 (CUL3) neddylation was performed according to manufacturer instructions (Revvity, Hopkinton, MA). Briefly, TF 1 cells (ATCC) were plated in Iscove's Modified Dulbecco's Medium (IMIDM) without supplements in 384-well plates. These cells were treated with […] for 3 hours before lysing them with AlphaLISA lysis buffer, 5× (Revvity). To detect the level of CUL3 neddylation, biotinylated anti-NEDD8 antibody, was added followed by AlphaLISA Acceptor beads conjugated with anti-CUL3 antibody. After overnight incubation, Streptavidin-coated Alpha Donor beads were added and incubated for 1 hour. The AlphaLISA signal was then read on a VICTOR Nivo Multimode Microplate Reader (Revvity, Hopkinton, MA). The positive control was 1 μM DI-1548, which is reported to reduce CUL3 neddylation, also referred to as C-1 in Example 41 (Zhou et al. Nature Comm. 2021). The neddylation signal was normalized such that the percent inhibition is 0% for vehicle control and 100% for positive control. The dose-response curves were fitted with the Hill equation to obtain IC50 values (Graphpad Prism).

[3] = 24 hr after treatment with compound, read-out: TR FRET IC50 24 hr
[4] = TR FRET IC50 1 hr (nM), 1 hr after treatment with compound
[5] = read-out: TR FRET IC50 1 hr, 1 hr after treatment with compound

Chain of DCN1 (DCUND1) protein PONY domain (Q96GG9 60-248): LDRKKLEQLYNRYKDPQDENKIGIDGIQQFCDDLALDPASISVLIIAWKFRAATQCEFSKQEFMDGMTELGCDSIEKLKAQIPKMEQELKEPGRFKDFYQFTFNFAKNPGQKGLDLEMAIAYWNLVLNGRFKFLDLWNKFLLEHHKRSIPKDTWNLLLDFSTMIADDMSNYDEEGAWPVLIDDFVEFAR

CCN1C(=O)[C@@H](NC(=O)c2cccc(C(F)(F)F)c2)[C@@H](c2ccc(F)cc2)c2c(C(=O)N3[C@H](C#N)C[C@H]4C[C@H]43)nn([C@H]3CCOC3)c21 (relative stereo) [Compound I-630, N-((4S*,5S*)-3-((1R,3S,5R)-3-cyano-2-azabicyclo[3.1.0]hexane-2-carbonyl)-7-ethyl-4-(4-fluorophenyl)-6-oxo-1-((S**)-tetrahydrofuran-3-yl)-4,5,6,7-tetrahydro-1H-pyrazolo[3,4-b]pyridin-5-yl)-3-(trifluoromethyl)benzamide]
IC50 [1, 3]: ≤ 200 nM | IC50 [1, 4]: ≤ 200 nM | IC50 ([2]; Homo sapiens, TF-1, 3 h): ≤ 100 nM

CN1C(=O)[C@@H](NC(=O)c2cccc(C(F)(F)F)c2)[C@@H](C2CC2)c2c(C(=O)N3[C@H](C#N)C[C@H]4C[C@H]43)nn(C3CCOCC3)c21 (relative stereo) [Compound I-650, N-((4S*,5S*)-3-((1R,3S,5R)-3-cyano-2-azabicyclo[3.1.0]hexane-2-carbonyl)-4-cyclopropyl-7-methyl-6-oxo-1-(tetrahydro-2H-pyran-4-yl)-4,5,6,7-tetrahydro-1H-pyrazolo[3,4-b]pyridin-5-yl)-3-(trifluoromethyl)benzamide]
IC50 [1, 3]: ≤ 200 nM | IC50 [1, 4]: ≤ 200 nM | IC50 ([2]; Homo sapiens, TF-1, 3 h): ≤ 100 nM

CCN1C(=O)[C@@H](NC(=O)c2cccc(C(F)(F)F)c2)[C@@H](C2CC2)c2c(C(=O)N3CC[C@H](NC)[C@H]3C#N)nn(C3CCOCC3)c21 (relative stereo) [Compound I-687, N-((4S,5S)-3-((2S*,3S*)-2-cyano-3-(methylamino)pyrrolidine-1-carbonyl)-4-cyclopropyl-7-ethyl-6-oxo-1-(tetrahydro-2H-pyran-4-yl)-4,5,6,7-tetrahydro-1H-pyrazolo[3,4-b]pyridin-5-yl)-3-(trifluoromethyl)benzamide]
IC50 [1, 3]: ≤ 200 nM | IC50 [1, 4]: ≤ 200 nM | IC50 ([2]; Homo sapiens, TF-1, 3 h): ≤ 100 nM

CCN1C(=O)[C@@H](NC(=O)c2cccc(C(F)(F)F)c2)[C@@H](c2ccc(F)cc2)c2c(CN(C#N)CCCCN(C)C)nn(-c3ccccc3)c21 (single isomer, unassigned) [Compound I-249, ˜{N}-[(4˜{S},5˜{R})-3-[[cyano-[4-(dimethylamino)butyl]amino]methyl]-7-ethyl-4-(4-fluorophenyl)-6-oxo-1-phenyl-4,5-dihydropyrazolo[3,4-b]pyridine-5-yl]-3-(trifluoromethyl)benzamide]
IC50 [1, 3]: 200 to 1000 nM | IC50 [1, 4]: 200 to 1000 nM | IC50 ([2]; Homo sapiens, TF-1, 3 h): 100 to 1000 nM

CCN1C(=O)[C@@H](NC(=O)c2cccc(C(F)(F)F)c2)[C@@H](C2CC2)c2c(C(=O)N3CCN(C)C[C@@H]3C#N)nn(C3CCOCC3)c21 (single isomer, unassigned) [Compound I-431]
IC50 [1, 3]: 200 to 1000 nM | IC50 [1, 4]: 200 to 1000 nM | IC50 ([2]; Homo sapiens, TF-1, 3 h): 100 to 1000 nM

CCN1C(=O)[C@@H](NC(=O)c2nccc(C(F)(F)F)n2)[C@H](c2ccc(F)cc2)c2c(CC(=O)N[C@@H](C)C#N)nn(-c3ccccc3)c21 (single isomer, unassigned) [Compound I-451]
IC50 [1, 3]: 1000 to 3000 nM | IC50 [1, 4]: 1000 to 3000 nM | IC50 ([2]; Homo sapiens, TF-1, 3 h): > 1000 nM

CCN1C(=O)[C@@H](NC(=O)N2CCC[C@@H](C(F)(F)F)C2)C(c2ccc(F)cc2)c2c(C(=O)N3CCC[C@H]3C#N)nn(-c3ccccc3)c21 (single isomer, unassigned) [Compound I-464]
IC50 [1, 3]: 1000 to 3000 nM | IC50 [1, 4]: 1000 to 3000 nM | IC50 ([2]; Homo sapiens, TF-1, 3 h): > 1000 nM

CCN1C(=O)[C@@H](NC(=O)c2cccc(C(F)(F)F)c2)[C@@H](c2ccc(F)cc2)c2c(C(=O)N3[C@H](C#N)C[C@H]4C[C@H]43)nn([C@@H]3CCOC3)c21 (single isomer, unassigned) [Compound I-482]
IC50 [1, 3]: ≤ 200 nM | IC50 [1, 5]: ≤ 200 nM | IC50 [2]: ≤ 100 nM

CCN1C(=O)[C@@H](NC(=O)N2CCC[C@H](C(F)(F)F)C2)[C@@H](c2ccc(F)cc2)c2c(C(=O)N3CCC[C@H]3C#N)nn(-c3ccccc3)c21 (single isomer, unassigned) [Compound I-501]
IC50 [1, 3]: 200 to 1000 nM | IC50 [1, 4]: 1000 to 3000 nM | IC50 ([2]; Homo sapiens, TF-1, 3 h): > 1000 nM

CCN1C(=O)[C@@H](NC(=O)c2cccc(C(F)(F)F)c2)[C@@H](C2CC2)c2c(C(=O)N3CCNC[C@@H]3C#N)nn(-c3ccccc3)c21 (single isomer, unassigned) [Compound I-518]
IC50 [1, 3]: ≤ 200 nM | IC50 [1, 4]: 200 to 1000 nM | IC50 ([2]; Homo sapiens, TF-1, 3 h): ≤ 100 nM

CCN1C(=O)[C@H](NC(=O)c2cccc(C(F)(F)F)c2)[C@H](c2ccc(F)cc2)c2c(C(=O)N3[C@H](C#N)C[C@H]4C[C@H]43)nn([C@@H]3CCOC3)c21 (single isomer, unassigned) [Compound I-562]
IC50 [1, 3]: 1000 to 3000 nM | IC50 [1, 4]: 1000 to 3000 nM | IC50 [2]: > 1000 nM

CCN1C(=O)[C@@H](NC(=O)c2cccc(C(F)(F)F)c2)[C@@H](c2ccc(F)cc2)c2c(C(=O)N3[C@H](C#N)C[C@H]4C[C@H]43)nn([C@@H]3CCOC3)c21 (single isomer, unassigned) [Compound I-583]
IC50 [1, 3]: 1000 to 3000 nM | IC50 [1, 4]: 1000 to 3000 nM | IC50 [2]: > 1000 nM

CCN1C(=O)[C@@H](NC(=O)c2nccc(C(F)(F)F)n2)[C@H](c2ccc(F)cc2)c2c(CC(=O)N[C@H](C)C#N)nn(-c3ccccc3)c21 (single isomer, unassigned) [Compound I-607]
IC50 [1, 3]: 1000 to 3000 nM | IC50 [1, 4]: 200 to 1000 nM | IC50 ([2]; Homo sapiens, TF-1, 3 h): > 1000 nM

CCN1C(=O)[C@H](NC(=O)c2cccc(C(F)(F)F)c2)[C@H](c2ccc(F)cc2)c2c(C(=O)N3[C@H](C#N)C[C@H]4C[C@H]43)nn([C@@H]3CCOC3)c21 (single isomer, unassigned) [Compound I-704]
IC50 [1, 3]: ≤ 200 nM | IC50 [1, 5]: 1000 to 3000 nM | IC50 [2]: 100 to 1000 nM

CCN1C(=O)[C@H](NC(=O)c2cccc(C(F)(F)F)c2)[C@H](c2ccc(F)cc2)c2c(C(=O)N(CC#N)CC(=O)OC)nn(-c3ccccc3)c21 (stereo in doubt) [Compound I-406]
IC50 [1, 3]: ≤ 200 nM | IC50 [1, 4]: 200 to 1000 nM | IC50 ([2]; Homo sapiens, TF-1, 3 h): 100 to 1000 nM

CCN1C(=O)C(NC(=O)c2cccc(C(F)(F)F)c2)[C@@H](C2CC2)c2c(C(=O)N3CC(NC)CC3C#N)nn(C3CCOCC3)c21 (stereo in doubt) [Compound I-420, N-[(4S,5S)-3-[(2S,4R*)-2-cyano-4-(methylamino)pyrrolidine-1-carbonyl]-4-cyclopropyl-7-ethyl-1-(oxan-4-yl)-6-oxo-4H,5H-pyrazolo[3,4-b]pyridin-5-yl]-3-(trifluoromethyl)benzamide]
IC50 [1, 3]: 1000 to 3000 nM | IC50 [1, 4]: 1000 to 3000 nM | IC50 ([2]; Homo sapiens, TF-1, 3 h): > 1000 nM

CCN1C(=O)[C@H](NC(=O)c2cccc(C(F)(F)F)c2)[C@H](c2ccc(F)cc2)c2c(C(=O)N(CC#N)CCC(=O)OC)nn(-c3ccccc3)c21 (stereo in doubt) [Compound I-461]
IC50 [1, 3]: 1000 to 3000 nM | IC50 [1, 4]: 1000 to 3000 nM | IC50 ([2]; Homo sapiens, TF-1, 3 h): > 1000 nM

C=C(CN1CCC1)C(=O)NCc1nn(-c2ccccc2)c2c1[C@H](C1CC1)[C@H](NC(=O)c1cccc(C(F)(F)F)c1)C(=O)N2CC (stereo in doubt) [Compound I-462]
IC50 [1, 3]: ≤ 200 nM | IC50 [1, 5]: ≤ 200 nM | IC50 ([2]; Homo sapiens, TF-1, 3 h): ≤ 100 nM

CCN(CC#N)C(=O)c1nn(-c2ccccc2)c2c1[C@@H](c1ccc(F)cc1)[C@@H](NC(=O)c1cccc(C(F)(F)F)c1)C(=O)N2CC (stereo in doubt) [Compound I-531]
IC50 [1, 3]: ≤ 200 nM | IC50 [1, 4]: 1000 to 3000 nM | IC50 ([2]; Homo sapiens, TF-1, 3 h): 100 to 1000 nM

CCN1C(=O)[C@@H](NC(=O)c2cccc(C(F)(F)F)c2)[C@@H](c2ccc(F)cc2)c2c(C(=O)N3CCC[C@H]3C#N)nn(-c3cccc(OCCCN4CC5(COC5)C4)c3)c21 (stereo in doubt) [Compound I-615]
IC50 [1, 3]: 200 to 1000 nM | IC50 [1, 4]: 1000 to 3000 nM | IC50 ([2]; Homo sapiens, TF-1, 3 h): > 1000 nM

C=C(CN1CCC1)C(=O)NCc1nn(-c2ccccc2)c2c1[C@@H](C1CC1)[C@@H](NC(=O)c1cccc(C(F)(F)F)c1)C(=O)N2CC (stereo in doubt) [Compound I-636]
IC50 [1, 3]: 1000 to 3000 nM | IC50 [1, 4]: 1000 to 3000 nM | IC50 ([2]; Homo sapiens, TF-1, 3 h): > 1000 nM

CCN1C(=O)[C@H](NC(=O)c2cccc(C(F)(F)F)c2)[C@H](c2ccc(F)cc2)c2c(C(=O)N(CC#N)CCO)nn(-c3ccccc3)c21 (stereo in doubt) [Compound I-639]
IC50 [1, 3]: 1000 to 3000 nM | IC50 [1, 4]: 1000 to 3000 nM | IC50 ([2]; Homo sapiens, TF-1, 3 h): > 1000 nM

CCN1C(=O)[C@H](NC(=O)c2cccc(C(F)(F)F)c2)[C@H](c2ccc(F)cc2)c2c(C(=O)N(CC#N)C3CC3)nn(-c3ccccc3)c21 (stereo in doubt) [Compound I-674]
IC50 [1, 3]: 1000 to 3000 nM | IC50 [1, 4]: 1000 to 3000 nM | IC50 ([2]; Homo sapiens, TF-1, 3 h): > 1000 nM

C=C(CN1CCC(C)(O)C1)C(=O)NCc1nn(-c2ccccc2)c2c1[C@H](c1ccc(F)cc1)[C@H](NC(=O)c1cccc(C(F)(F)F)c1)C(=O)N2CC (stereo partly drawn) [Compound I-25]
IC50 [1, 3]: ≤ 200 nM | IC50 [1, 5]: ≤ 200 nM | IC50 ([2]; Homo sapiens, TF-1, 3 h): ≤ 100 nM

C=C(CN1CC2CCC(C1)O2)C(=O)NCc1nn(-c2ccccc2)c2c1[C@H](c1ccc(F)cc1)[C@H](NC(=O)c1cccc(C(F)(F)F)c1)C(=O)N2CC [Compound I-50]
IC50 [1, 3]: ≤ 200 nM | IC50 [1, 5]: ≤ 200 nM | IC50 ([2]; Homo sapiens, TF-1, 3 h): ≤ 100 nM
